In PMC4514850, “A Novel TGR5 Activator WB403 Promotes GLP-1 Secretion and Preserves Pancreatic β-Cells in Type 2 Diabetic Mice” (PLoS ONE, 2015):

How the values were obtained:
[1] = system: HFD/STZ mice; assay: pancreas histology (H&E) of treated HFD/STZ mice; type: in vivo; details: after 8-week treatment
Method: (§1) Analysis of islet cell mass was performed using conventional methods. In brief, mice were sacrificed by cervical dislocation. The body part of the pancreas was rapidly excised, fixed in 10% neutral buffered formalin solution for 24 h and embedded in paraffin, then sectioned at 5 μm ready for hematoxylin and eosin (H&E) staining and immunohistochemistry staining (IHC). The latter was carried out using rabbit anti-insulin polyclonal antibody (Cat. no. 4590, 1:600) and rabbit anti-glucagon monoclonal antibody (Cat. no. 8233s, 1:200) from Cell Signaling Technology.
(§2) Fig 5 WB403 preserved the mass of pancreatic β-cells and normal distribution of α and β-cells. (A) H&E staining of pancreas from db/db mice, and statistical result. Islets were sized by the Image J analysis software on alternated pancreatic sections spaced each by 100 μm. (B) Immunohistochemical analysis of pancreatic sections by anti-insulin antibody or anti-glucagon antibody. (C) H&E staining of pancreas from HFD/STZ mice, and statistical result. Results are representative islets from each group. 1–5 in the column graph on the right represents normal mice, diabetic mice treated with vehicle, WB403 50 mg/kg, WB403 100 mg/kg, sitagliptin 100 mg/kg respectively (n = 5). *p<0.05, **p<0.01, ***p<0.001 vs. diabetes-vehicle group.

[2] = system: ICR mice; assay: 7-day acute toxicity test in ICR mice; details: 6000 mg/kg group after 7-day acute toxicity test
[3] = system: primary enterocytes; assay: active GLP-1 secretion in primary enterocytes; type: cell-based; details: Fig 1G
Method: (§3) Endocrine differentiation was induced by seeding NCI-H716 cells in plates coated with Matrigel (Becton Dickinson). Cells were washed with RPMI-1640 medium without FBS and incubated in the same medium containing indicated compounds at 10 μmol/l. The condition medium was collected after 30 min. GLP-1 secretion in MIN6 or primary enterocytes was conducted similarly. To isolate primary enterocytes, ileum or colon was cut into 2 cm length, rinsed by PBS (pH7.2∼7.4) before dispersed in 10 mmol/l EDTA/PBS (pH7.4) for 15 min at room temperature, followed by pipetting up and down. Enterocytes were collected by filtration through a 70 μm cell strainer. To study the effect of WB403 on GLP-1 secretion in vivo, mice in group of three were fasted overnight and orally received 0, 50, 100 mg/kg of WB403 dispersed in 0.5% CMC with a DPP-4 inhibitor (5 mg/kg). There were 5 animals in each group. 2 g/kg glucose was administrated 30 min later and blood was collected 10 min after glucose challenge.
(§4) The GLP-1 (active) ELISA kit was purchased from Millipore, and insulin ELISA kit was from Mercodia. For quantitative determination of cAMP, a competitive enzyme immunoassay kit from R&D system was used. All immunoassays were performed according to manufacturers’ instructions.

[4] = system: db/db mice; assay: pancreas histology (H&E, IHC) of treated db/db mice; type: in vivo
Method: as §1, §2

[5] = system: MIN6 cells; assay: active GLP-1 secretion in MIN6 cells; type: cell-based, mouse; details: Fig 1H
Method: as §3, §4

Structure (SMILES): CCc1cc(-c2nc(C)c(COCc3ccc(Br)cc3)s2)ccn1 [WB403, 4-(5-((4-bromobenzyloxy)-methyl)-4-methylthiazol-2-yl)-2-ethylpyridine]
- islet area [1]: restored islet area but did not expand it beyond that of normal mice
- signs of toxicity in tissue sections (H&E) [2]: did not show obvious signs of toxicity
- GLP-1 stimulation in primary enterocytes [3]: outstanding effect in GLP-1 stimulation
- islet area vs vehicle ([4]; H&E, after 4-week treatment): bigger islet area as compared to the vehicle mice, though no significant difference was found
- α-cell and β-cell distribution in islets ([4]; IHC anti-insulin / anti-glucagon): significantly reduced α-cell in the islet core area and restored the normal cell distribution pattern
- GLP-1 stimulation in MIN6 cells [5]: GLP-1 stimulation effect of WB403 was confirmed
